Values of other authors as cited in patent US20130079315A1, “Ophthalmic Gel Compositions” (priority 2011, published 2013).

solubility in water: about 0.008 mg/mL
SMILES: CCOC(=O)O[C@]1(C(=O)OCCl)CC[C@H]2[C@@H]3CCC4=CC(=O)C=C[C@]4(C)[C@H]3[C@@H](O)C[C@@]21C [LE, (11β,17α),-7-((Ethoxycarbonyl)oxy)-11-hydroxy-3-oxoandrosta-1,4-diene-17-carboxylic acid chloromethyl ester]
